Several values for one entry are separate records, joined by “and”; a condition that tells them apart may be missing. Equal values may be shown once. Entries after “also recorded” stand apart in the source; their conditions may differ.
Legend:
[1] = system: dorsal horn neurones; experiment: whole-cell patch clamp recording in spinal cord slices from Chung models of neuropathic pain: membrane properties of dorsal horn neurones; format: cell-based, rat; details: for Membrane Potential, mean in presence of peptide: ipsilateral to injury; for Normalised Input Resistance, mean in presence of peptide / Normalised Input Resistance, ΔIR: control = 100; for reversal potential of peptide-induced response (intersection of VI relations): individual neurones; for Normalised Membrane Potential, mean in presence of peptide / Normalised Membrane Potential, ΔVm: rest = 100
Source text: (§1) An in vitro spinal cord slice with intact dorsal root afferents combined with single-cell whole-cell patch clamp electrophysiological recording techniques was used to assess the electrophysiological properties of the peptides having the amino acid sequence of SEQ ID NO:2, 3, 4 and 5.
The spinal nerve ligation model (Chung model) was first reported by Kim and Chung (1992; Pain, 50(3):355-63) and involves a single tight ligation of the L5 spinal nerve. […] This model has been used as a “gold standard” model for assessing the efficacy of novel compounds targeting neuropathic pain.
Adult male Sprague-Dawley rats, 8-9 weeks old, weighing 220-250 g at the time of surgery, were purchased from Charles River UK Ltd. The animals were housed in groups of 4 in an air-conditioned room on a 12-hour light/dark cycle. Food and water were available ad libitum. They were allowed to acclimatise to the experimental environment for three days by leaving them on a raised metal mesh for at least 40 min. The baseline paw withdrawal threshold (PWT) was examined using a series of graduated von Frey hairs for 3 consecutive days before surgery and re-assessed on the 6th to 8th day after surgery and on the 12th to 14th day after surgery before drug dosing. Each rat was anaesthetized with 5% isoflurane mixed with oxygen (2L per min) followed by an intramuscular (i.m.) injection of ketamine 90 mg/kg plus xylazine 10 mg/kg. The back was shaved and sterilized with povidone-iodine. The animal was placed in a prone position and a para-medial incision was made on the skin covering the L4-6 level. The L5 spinal nerve was carefully isolated and tightly ligated with 6/0 silk suture. The wound was then closed in layers after a complete hemostasis. A single dose of antibiotics (Amoxipen, 15 mg/rat, i.p.) was routinely given for prevention of infection after surgery. The animals were placed in a temperature-controlled recovery chamber until fully awake before being returned to their home cages.
(§2) Chung model rats, aged 8 to 12 weeks, were housed in an air-conditioned room on a 12 hour light/dark cycle with food and water available ad libitum. The rats were terminally anaesthetized using isofluorane and decapitated. The vertebral column, rib cage and surrounding tissues were rapidly removed and pinned under ice-cold (<4° C.), high sucrose-containing artificial cerebrospinal fluid (aCSF) comprising: 127 mM sucrose, 1.9 mM KCl, 1.2 mM KH2PO4, 0.24 mM CaCl2, 3.9 mM MgCl2, 26 mM NaHCO3, 10 mM D-glucose and 0.5 mM ascorbic acid. A laminectomy was performed and the spinal cord and associated roots gently dissected and teased out of the spinal column and surrounding tissues. Dura and pia mater and ventral roots were subsequently removed with fine forceps and the spinal cord hemisected. Care was taken to ensure dorsal root inputs to the spinal cord were maintained. The hemisected spinal cord-dorsal root preparations were secured to a tissue slicer and spinal cord slices (400 to 450 μm thick) with dorsal roots attached were cut in chilled (<4° C.) high sucrose aCSF using a Leica VT1000s microtome.
(§3) Slices were transferred to a small beaker containing ice cold aCSF with 127 mM NaCl, 1.9 mM KCl, 1.2 mM KH2PO4, 1.3 mM MgCl2, 2.4 mM CaCl2, 26 mM NaHCO3 and 10 mM D-glucose, and rapidly warmed to 35° C. ±1° C. in a temperature-controlled water bath over a 20 minute period, then subsequently removed and maintained at room temperature (22° C. ±2° C.) prior to electrophysiological recording. Electrophysiological recording was performed in aCSF comprising 127 mM NaCl, 1.9 mM KCl, 1.2 mM KH2PO4, 1.3 mM MgCl2, 2.4 mM CaCl2, 26 mM NaHCO3 and 10 mM D-glucose.
Whole-cell recordings were performed at 34-35° C. from Lamina I or II neurones in the dorsal horn of the spinal cord slices using Axopatch 1D and/or Multiclamp 700B amplifies and using the “blind” version of the patch-clamp technique. […]

[2] = system: dorsal root afferent-mediated synaptic inputs to dorsal horn neurones; experiment: whole-cell recording in spinal cord slices from Chung models: dorsal root afferent-mediated synaptic inputs (evoked EPSPs/IPSPs); format: cell-based, rat; details: for effect on dorsal root-evoked EPSPs / excitatory synaptic transmission (in words) / effect on dorsal root-evoked IPSPs / inhibitory synaptic transmission (in words): peptide 5 μM, dorsal root stimulation 0.1 Hz
Method: as §1, §2, §3
Whole-cell recordings were performed at 34-35° C. from Lamina I or II neurones in the dorsal horn of the spinal cord slices using Axopatch 1D and/or Multiclamp 700B amplifies and using the “blind” version of the patch-clamp technique.
Patch pipettes were pulled from thin-walled borosilicate glass with resistances of between 3 and 8 MS2 when filled with intracellular solution (140 mM potassium gluconate, 10 mM KCl, 1 mM EGTA-Na, 10 mM HEPES, 4 mM Na2ATP, 0.3 mM Na-GTP). The peptides of SEQ ID NOs:2, 3, 4 or 5 (LAT7771, LAT7772, LAT7773 or LAT7774) were diluted in the tissue bath at a concentration of 5 μM.
A concentric bipolar stimulating electrode was placed appropriately either on the dorsal root or dorsal root entry zone to evoke postsynaptic potentials/currents in recorded cells (see FIG. 1). […] EPSPs/EPSCs were confirmed as monosynaptic on the basis of being characterised by a constant latency and rise-time with few failures.
Recordings were monitored on an oscilloscope and stored on digital audio tapes for later off-line analysis. In addition, data were low-pass filtered at 2-5 kHz, (1 kHz for voltage-clamp data), digitized at 2-10 kHz and stored on a PC running pCLAMP 10 data acquisition software (Axon Instruments). Analysis of electrophysiological data was carried out using Clampfit 10 software.

[3] = system: Chung model of neuropathic pain; experiment: paw withdrawal threshold (von Frey) in Chung model of neuropathic pain, oral or intramuscular administration; format: in vivo, rat; details: for paw withdrawal threshold (PWT) / reversal of mechanical allodynia: 2 hours after administration, ipsilateral side
Source text: Chung model of neuropathic pain was used to compare the in vivo efficacy of LAT8881 and LAT7771 administered orally or intramuscularly.
The spinal nerve ligation model (Chung model) was first reported by Kim and Chung (1992; Pain, 50(3):355-63) and involves a single tight ligation of the L5 spinal nerve. […] This model has been used as a “gold standard' model for assessing the efficacy of novel compounds targeting neuropathic pain.
Adult male Sprague-Dawley rats, 8-9 weeks old, weighing 220-250 g at the time of surgery, were anaesthetised with 3% isoflurane mixed with oxygen followed by an intramuscular injection of a mixture of ketamine and xylazine. The back was shaved and sterilised with povidone-iodine soaked cotton balls. The L5 spinal nerve was carefully isolated and tightly located with 6/0 silk suture and the wound was closed in layers. The single-dose antibiotics (Amoxipen, 100 mg/kg, i.p.) was routinely given for prevention of infection after surgery.
The animals were placed in individual Perspex boxes on a raised metal mesh for at least 40 minutes. Starting with the filament of lowest force (1 g), each filament was applied perpendicularly to the centre of the ventral surface of the paw until slightly bent for 6 seconds. If the animal withdrew or lifted its paw upon stimulation, a von Frey hair with force immediately lower than that tested was subsequently used. If no response was observed, then a hair with force immediately higher was tested. The lowest amount of force required to induce reliable responses (positive in 2 out of 3 trials) was recorded as the value of […] (PWT).
PWT was assessed once daily for three days before surgery and once a week for monitoring the development of mechanical allodynia.
All drug tests were carried out on the 13th to 17th day after surgery. All drug dosing was ‘blindly’ carried out by a second experimenter. The test compounds were administered and PWT was assessed before and 2 hours following drug or vehicle (5% DMSO) administration.

[4] = solubility in distilled water
[5] = LAT8881, concentration not given, one neurone

CRIIHNNNC [LAT7771, C-terminal fragment of human prolactin spanning residues 219-227 of human prolactin precursor]
effect on inward rectification (in words) ([1]; peptide 5 μM): enhancement or increase in the strength of inward rectification; also recorded: enhanced inward rectification | effect on membrane potential / postsynaptic membrane properties (in words) ([1]; peptide 5 μM): little effect on a further 3 dorsal horn neurones; also recorded: principally induced membrane depolarisation; also recorded: membrane depolarisation and an increase in spontaneous firing; also recorded: minimal membrane depolarisation; also recorded: little or no effect on postsynaptic properties | effect on neuronal input resistance (in words) ([1]; peptide 5 μM): little change in neuronal input resistance; also recorded: marginal increase in neuronal input resistance | change in neuronal input resistance ([1]; peptide 5 μM vs control): 15.8 ± 36.1 MΩ | ΔIR, change in neuronal input resistance ([1]; peptide 5 μM vs control, table prints control minus drug, text the magnitude): −15.8 MΩ | Input Resistance, mean in presence of peptide ([1]; peptide 5 μM, all cells): 447.6 MΩ | neuronal input resistance in the presence of peptide ([1]; peptide 5 μM, all cells): 447.6±119.4 MS2 | Membrane Potential, mean in presence of peptide ([1]; peptide 5 μM, all cells): −53.8±2.8 mV and −53.8 mV | Normalised Input Resistance, mean in presence of peptide ([1]; peptide 5 μM): 94.8 | Normalised Input Resistance, ΔIR ([1]; peptide 5 μM): 5.2 | reversal potential of peptide-induced response (intersection of VI relations) ([1]; peptide 5 μM): −55 mV (2×) and −45 mV and −40 mV | Normalised Membrane Potential, mean in presence of peptide ([1]; peptide 5 μM): 94.8 | Normalised Membrane Potential, ΔVm ([1]; peptide 5 μM): 5.2 | effect on dorsal root-evoked EPSPs / excitatory synaptic transmission (in words) [2]: In four neurones, dorsal root evoked EPSPs at a frequency of 0.1 Hz were reduced; also recorded: consistently reduced dorsal root-evoked EPSPs; also recorded: EPSPs were suppressed | effect on dorsal root-evoked IPSPs / inhibitory synaptic transmission (in words) [2]: In two of these neurones, suppression of EPSPs uncovered or activated IPSPs; also recorded: in two neurones promoted inhibitory synaptic transmission; also recorded: enhanced inhibitory synaptic transmission | effect on dorsal root-evoked IPSPs (in words) ([2]; prolactin 500 nM, 0.1 Hz and 5 Hz): lack of effect | paw withdrawal threshold (PWT) / reversal of mechanical allodynia ([3]; 10 mg/kg intramuscularly (IM)): significantly increased the PWT | paw withdrawal threshold (PWT) / reversal of mechanical allodynia ([3]; 10 mg/kg orally (PO)): significantly increased the PWT | analgesic properties in vivo ([3]; compared with LAT8881): comparable to that of LAT8881

CRIVYDSNC [LAT7773]
effect on inward rectification (in words) ([1]; peptide 5 μM): enhancing inward rectification; also recorded: enhanced inward rectification | effect on neuronal input resistance (in words) ([1]; peptide 5 μM): variable effects on input resistance inducing a decrease in 4 neurones and an increase in 5 neurones; also recorded: small increase in neuronal input resistance | Input Resistance, mean in presence of peptide ([1]; peptide 5 μM, all cells): 373.5±103.6 MΩ and 373.5 MΩ | Membrane Potential, mean in presence of peptide ([1]; peptide 5 μM, all cells): −50.3±3.0 mV and −50.3 mV | Normalised Input Resistance, mean in presence of peptide ([1]; peptide 5 μM): 99.9 | Normalised Input Resistance, ΔIR ([1]; peptide 5 μM): 0.1 | reversal potential of peptide-induced response (intersection of VI relations) ([1]; peptide 5 μM): no clear reversal potential in 7 neurones; also recorded: around −93 mV; also recorded: around −92 mV | membrane hyperpolarisation in individual neurones ([1]; peptide 5 μM, responding neurones): 7.6 mV | Normalised Membrane Potential, mean in presence of peptide ([1]; peptide 5 μM): 88.4 | Normalised Membrane Potential, ΔVm ([1]; peptide 5 μM): 11.6 | effect on dorsal root-evoked EPSPs / excitatory synaptic transmission (in words) [2]: In three neurones electrical stimulation of dorsal roots (0.1 Hz) evoked EPSPs that were suppressed; also recorded: In two other neurones EPSPs, and in one of these IPSPs, were enhanced; also recorded: remaining two neurones showed no change; also recorded: in some neurones depressed whilst in others they were clearly potentiated; also recorded: reducing dorsal root afferent-mediated synaptic inputs; also recorded: little effect on dorsal root afferent-mediated excitatory synaptic transmission; also recorded: increase in dorsal root afferent-mediated synaptic transmission | effect on dorsal root-evoked IPSPs / inhibitory synaptic transmission (in words) [2]: in one of these IPSPs, were enhanced; also recorded: both EPSPs and IPSPs were enhanced | solubility in distilled water [4]: soluble

YLRIVQCRSVEGSCGF [LAT8881, human growth hormone derived analgesic compound of PCT/AU2019/050020, reference compound]
effect on postsynaptic properties (in words) ([1]; LAT8881, concentration not given, one neurone, after wash of LAT7771): little or no effect on postsynaptic properties | effect on dorsal root-evoked EPSPs (in words) [2, 5]: suppressing EPSPs | effect on inhibitory synaptic transmission / IPSPs (in words) [2, 5]: partly mimicked by LAT8881; also recorded: enhanced inhibitory synaptic transmission | paw withdrawal threshold (PWT) / reversal of mechanical allodynia ([3]; 10 mg/kg intramuscularly (IM)): reversed mechanical allodynia; also recorded: significantly increased the PWT | paw withdrawal threshold (PWT) / reversal of mechanical allodynia ([3]; 10 mg/kg orally (PO)): reversed mechanical allodynia; also recorded: significantly increased the PWT

Reference: patent publication US20220354929A1, “PEPTIDES AND USES THEREOF” (LATERAL IP PTY LTD, priority 2019, published 2022)
